US10941384B2, “Compositions and methods for promoting the generation of endocrine cells” (President and Fellows of Harvard College, priority 2013, dated 2021)

Experiments:
[1] = test system: Human NGN3 (HUES 8-pancreatic progenitor population); assay: High-content screen 1 and efficacy curve: NGN3+ cells by immunofluorescence (Cellomics); format: cell-based
Method: hESC culture and differentiation. Protocol 1. HUES 8 and H1 cells are routinely cultured on irradiated MEF feeder cells in KnockOut DMEM (Invitrogen) supplemented with 10% (v/v) KnockOut serum replacement (Invitrogen), 0.5% (v/v) human plasma fraction (Talecris Biotech), 2 mM L-glutamine (Invitrogen), 1.1 mM 2-mercaptoethanol (Invitrogen), 1 mM nonessential amino acids (Invitrogen), 1× penicillin/streptomycin (PS, Invitrogen) and 10 ng/ml bovine FGF (Invitrogen). Cells are passaged at the ratio of 1:6 every 5 d by using 0.05% trypsin (Invitrogen). To generate the HUES-pancreatic progenitor population, HUES cells were cultured on MEF feeder cells until 80-90% confluent, then treated with 25 ng/ml Wnt3a (R&D systems)+100 ng/ml activin A (R&D systems) in RPMI (Invitrogen) supplemented with 1×L-glutamine and 1×PS for 1 d, and then 100 ng/ml activin A in RPMI supplemented with 1×L-glutamine, 1×PS and 0.2% (v/v) fetal bovine serum (FBS, Invitrogen). The medium was changed 2 d later to 50 ng/ml/FGF7 (R&D systems) in RPMI supplemented with 1×L-glutamine, 1×PS and 2% (v/v) FBS, and maintained for an additional 2 d. Cells were then transferred to 100 ng/ml Noggin (R&D systems)+0.25 μM SANT-1 (Sigma)+2 μM retinoic acid (Sigma) in DMEM supplemented with 1×L-glutamine, 1×PS and 1×B27 (Invitrogen) and cultured for an 4 d, followed by treatment with 100 ng/ml Noggin (R&D systems)+1 μM ALK5 inhibitor (Enzo)+100 nM PDBu (Sigma) in DMEM supplemented with 1×L-glutamine, 1×PS and 1×B27 (Invitrogen) and cultured for an additional 4 d. All HUES-pancreatic progenitor cells were derived using the same protocol as described above. The percentage and number of PDX1^+ cells and NGN3^+ cells were analyzed with the Cellomics high content screening system (Thermo Scientific). PKCβ inhibitor was purchased from Calbiochem.
High-content screen 1. […]
Screen 1: Generation of efficacy curve. […] Six days later, the cells were stained with NGN3 antibody and the plates were analyzed with the Cellomics high content screening system (Thermo Scientific). […]

[2] = test system: NGN3 mRNA (HUES 8-derived pancreatic progenitor cells); assay: qRT-PCR of NGN3 expression in chemically-treated populations; format: cell-based, human; details: quantitative RT-PCR, HUES 8-derived cells
Text: [drawing 11] was selected for follow up studies due to the high efficacy and low toxicity (FIG. 1C).

[3] = test system: human c-peptide in serum of SCID-Beige mice; assay: Kidney capsule transplantation of treated cells, glucose-stimulated human c-peptide ELISA; format: in vivo; details: treated cells under kidney capsule of SCID-beige mice, 12 weeks, 30 mins after glucose
Text: FIGS. 2A-2B show the characterization of cells derived by PKC inhibitor treatment. […] Cells were stained with insulin, c-peptide, glucagon, UCN3, PDX1 and NKX6-1 antibodies. All insulin-expressing cells express c-peptide. Few insulin-expressing cells express NKX6-1 or UCN3, markers of mature human β cells. Many insulin-expressing cells co-express another endocrine marker glucagon. Scale bars are 100 μm. […] Scheme beginning with cells that have been treated with hit chemicals, e.g., PKC inhibitors, comprises a population containing many NGN3-expressing cells. The HUES 8-derived pancreatic progenitor cells treated with DMSO were used as negative controls. […] 12 weeks later, the mouse sera collected at fasting condition and at 30 mins after glucose stimulation were analyzed using ELISA to measure human c-peptide expression. […]
Kidney capsule implantation and tissue preparation. […] The c-peptide levels in mouse sera were measured using the human c-peptide ELISA kit (Alpco Diagnostics or Millipore).
The inventors next investigated the developmental potential of cell populations enriched for NGN3^+ cells that were induced by PKC inhibition. […] More c-peptide (a byproduct of insulin biosynthesis)-expressing cells were detected in the derivatives of PKCβ inhibitor treated cells (12.5 5.8%) than the derivatives of control cells (DMSO-treated, 1.2 1.2%; FIG. 2b). […]

pancreatic progenitors = details: previously reported, US2011/0070645; cited from earlier work

Compound | percentage of NGN3+ cells, fold higher than the DMSO-treated controls ([1]; HUES 8, at maximum) | EC50 ([1]; Homo sapiens, 144 h, HUES 8-pancreatic progenitor population, six days, FIG. 1D, read-out: EC50, total number of NGN3+ cells) | toxicity in screen 1 ([1]; reason for selection for follow up) | expression of NGN3 mRNA compared to DMSO controls [2] | human c-peptide levels in the serum, glucose injection versus fasting [3] | generation of pancreatic progenitors (pancreatic progenitors)
O=C1NC(=O)C(c2cn(CCCn3ccnc3)c3ccccc23)=C1Nc1ccccc1 [PKCβ inhibitor] | ~7 fold | 7.8 µM | low toxicity | higher expression of NGN3 mRNA | significantly higher upon glucose injection than during fasting | –
(−)-Indolactam V | – | – | – | – | – | promotes the generation of pancreatic progenitors
